Source: PubChem BioAssay AID330 (DTP/NCI, 2004)
Where “and” joins values, the source holds several entries; their conditions need not be identical. Equal values may be shown once. Inconclusive results and toxic doses are left out. The calls were made as follows: active = survival T/C of 150% or more; inactive = T/C below 125% in these data.

Tested on: P388 leukemia ip, CD2F1 mice, survival T/C
Test: NCI In Vivo Anticancer Drug Screen. Data for tumor model P388 Leukemia (intraperitoneal) in CD2F1 (CDF1) mice
Settings: endpoint: median survival time, higher = longer survival
Outline: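 Mice carrying the transplanted tumor received test compound or vehicle. Survival was recorded in each group, and the value is the treated-group measurement divided by that of the vehicle-treated control group.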

[1] = dose: 50.0 mg/kg/injection, schedule: Q01DX009 (ip), vehicle: saline with Tween-80
[2] = dose: 100.0 mg/kg/injection, schedule: Q01DX009 (ip), vehicle: saline with Tween-80
[3] = dose: 200.0 mg/kg/injection, schedule: Q01DX009 (ip), vehicle: saline with Tween-80
[4] = dose: 200.0 mg/kg/injection, schedule: Q01DX005 (ip), vehicle: saline with Tween-80

Measured: T/C

c1ccc2c(Cc3nn[nH]n3)noc2c1
inactive: [1] 109 % of control | [2] 107 % of control | [3] 100 % of control

[Br][Sn]([Br])([CH2]CC[CH2][Sn]([Br])([Br])[c]1ccccc1)[c]1ccccc1
inactive: dose: 12.5 mg/kg/injection, schedule: Q01DX005 (ip), vehicle: Klucel (hydroxypropylcellulose) (HPC) 101 % of control | dose: 25.0 mg/kg/injection, schedule: Q01DX005 (ip), vehicle: Klucel (hydroxypropylcellulose) (HPC) 117 % of control | dose: 50.0 mg/kg/injection, schedule: Q01DX005 (ip), vehicle: Klucel (hydroxypropylcellulose) (HPC) 115 % of control and 117 % of control

O=C(NC1CCC(CC2CCC(NC(=O)C34CC5CC(CC(C5)C3)C4)CC2)CC1)C12CC3CC(CC(C3)C1)C2 (stereo not given)
inactive: dose: 0.4 mg/kg/injection, schedule: Q01DX005 (ip), vehicle: saline with Tween-80 97 % of control | dose: 0.8 mg/kg/injection, schedule: Q01DX005 (ip), vehicle: saline with Tween-80 98 % of control | dose: 1.56 mg/kg/injection, schedule: Q01DX005 (ip), vehicle: saline with Tween-80 91 % of control | dose: 1.6 mg/kg/injection, schedule: Q01DX005 (ip), vehicle: saline with Tween-80 97 % of control | dose: 3.2 mg/kg/injection, schedule: Q01DX005 (ip), vehicle: saline with Tween-80 87 % of control | dose: 6.25 mg/kg/injection, schedule: Q01DX005 (ip), vehicle: saline with Tween-80 89 % of control | [4] 86 % of control

O=S(=O)(O)c1cccc(/C(=N\Nc2ccccn2)c2ccccn2)c1
inactive: [1] 100 % of control | [2] 102 % of control | [3] 100 % of control

CCOC(=O)C(N=Nc1ccc(Br)cc1C)C(C)=O (stereo not given)
inactive: dose: 25.0 mg/kg/injection, schedule: Q01DX005 (ip), vehicle: saline with Tween-80 98 % of control | dose: 50.0 mg/kg/injection, schedule: Q01DX005 (ip), vehicle: saline with Tween-80 99 % of control | dose: 100.0 mg/kg/injection, schedule: Q01DX005 (ip), vehicle: saline with Tween-80 98 % of control | [4] 89 % of control
